Some results are limits rather than exact numbers.

One test has as its target T1, Human Recombinant Matriptase 2 (Homo sapiens, UniProt Q8IU80).
T1 construct: made in house
T1 sequence (Q8IU80 1-811): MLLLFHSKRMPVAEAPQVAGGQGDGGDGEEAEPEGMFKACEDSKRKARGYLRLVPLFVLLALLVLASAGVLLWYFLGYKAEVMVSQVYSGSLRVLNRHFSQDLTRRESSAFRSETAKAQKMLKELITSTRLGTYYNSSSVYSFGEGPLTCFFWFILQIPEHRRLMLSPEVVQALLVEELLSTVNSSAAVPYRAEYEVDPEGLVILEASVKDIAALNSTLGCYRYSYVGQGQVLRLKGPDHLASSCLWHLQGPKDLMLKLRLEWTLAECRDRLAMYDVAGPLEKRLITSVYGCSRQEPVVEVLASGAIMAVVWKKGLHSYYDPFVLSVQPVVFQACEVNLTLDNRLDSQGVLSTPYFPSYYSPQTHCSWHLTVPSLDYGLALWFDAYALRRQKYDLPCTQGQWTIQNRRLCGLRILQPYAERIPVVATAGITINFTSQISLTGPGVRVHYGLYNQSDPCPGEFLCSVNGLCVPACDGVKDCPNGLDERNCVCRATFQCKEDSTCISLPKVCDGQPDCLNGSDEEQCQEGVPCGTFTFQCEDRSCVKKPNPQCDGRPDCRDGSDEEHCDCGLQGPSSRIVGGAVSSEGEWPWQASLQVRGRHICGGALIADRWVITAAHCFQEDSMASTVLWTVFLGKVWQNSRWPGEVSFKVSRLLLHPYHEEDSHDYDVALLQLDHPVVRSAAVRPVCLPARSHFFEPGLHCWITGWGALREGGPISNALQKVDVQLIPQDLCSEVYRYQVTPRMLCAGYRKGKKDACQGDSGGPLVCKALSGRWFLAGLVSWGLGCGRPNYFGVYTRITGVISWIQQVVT
The experiment in a line: Matriptase 2 inhibition, fluorescence based assay (Method I). In kind it is biochemical. As to conditions: Table A; Ki of Matriptase-2; read-out: Mat-2 Ki. Put shortly: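 In-house recombinant enzyme (3.5 nM), preincubated 30 min with compound, then Boc-Gln-Ala-Arg-AMC substrate (62 μM) in 50 mM Tris pH 7.5, 150 mM NaCl, 0.01% gelatin, 1% DMSO, 25 °C. Fluorescence (Ex 360/Em 480 nm) read 60 min after substrate; IC50 from variable-slope sigmoidal fit of % inhibition.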
As usually defined, the Ki is a measure of affinity in units of concentration, obtained from inhibition or displacement. For the compound `NCc1ccc2cc(C(=O)OCCN3CCOCC3)n(Cc3cc(NS(=O)(=O)Cc4ccccc4)cc4ccccc34)c2n1` [Compound 50, 2-(morpholin-4-yl)ethyl 6-(aminomethyl)-1-{[3-(phenylmethanesulfon-amido)naphthalen-1-yl]-methyl}-1H-pyrrolo[2,3-b]pyridine-2-carboxylate], the inhibitory constant (Ki) was at most 0.1 µM. Consider `NCc1ccc2cc(C(=O)OCc3ccncc3)n(Cc3cc(NS(=O)(=O)Cc4ccccc4)cc4ccccc34)c2n1` [Compound 100, (pyridin-4-yl)methyl 6-(aminomethyl)-1-{[3-(phenylmethanesulfon-amido)naphthalen-1-yl]-methyl}-1H-pyrrolo[2,3-b]pyridine-2-carboxylate], for which the Ki is 0.1 to 0.5 µM. The same measure, in the same setting: then `C[C@H](OC(=O)c1ccccc1)OC(=O)c1cc2ccc(CN)nc2n1Cc1cc(NS(=O)(=O)Cc2ccccc2)cc2ccccc12` (racemic) [Compound 124, 1-[6-(aminomethyl)-1-{[3-(phenylmethanesul-fonamido)naphthalen-1-yl]methyl}-1H-pyrrolo-[2,3-b]pyridine-2-car-bonyloxy]ethyl benzoate], with 0.5 to 3 µM.

For the compound `NCc1ccc2cc(C(=O)OCCOCCN3CCCCC3)n(Cc3cc(NS(=O)(=O)Cc4ccccc4)cc4ccccc34)c2n1` [Compound 56, 2-[2-(piperidin-1-yl)-ethoxy]ethyl 6-(amino-methyl)-1-{[3-(phenyl-methanesulfonamido)-naphthalen-1-yl]methyl}-1H-pyrrolo[2,3-b]pyr-idine-2-carboxylate], the Ki is at most 0.1 µM.

In the case of `CC(=O)O[C@H](C)OC(=O)c1cc2ccc(CN)nc2n1Cc1cc(NS(=O)(=O)Cc2ccccc2)cc2ccccc12` (racemic) [Compound 89, 1-[6-(aminomethyl)-1-{[3-(phenylmethanesul-fonamido)naphthalen-1-yl]methyl}-1H-pyrrolo-[2,3-b]pyridine-2-carbon-yloxy]ethyl acetate], the Ki was in the range of 0.1 to 0.5 µM. The same measure, in the same setting: under `COCCN1CC[C@H](COC(=O)c2cc3ccc(CN)nc3n2Cc2cc(NS(=O)(=O)Cc3c(C)cccc3C)cc3ccccc23)C1` (racemic) [Compound 194, [1-(2-methoxyethyl)pyr-rolidin-3-yl]methyl 6-(aminomethyl)-1-({3-[(2,6-dimethylphenyl)-methanesulfonamido]-naphthalen-1-yl}meth-yl)-1H-pyrrolo[2,3-b]-pyridine-2-carboxylate] stands at most 0.1 µM. The same measure, in the same setting: then `CN(C)C(=O)OCCOC(=O)c1cc2ccc(CN)nc2n1Cc1cc(NS(=O)(=O)Cc2ccccc2)cc2ccccc12` [Compound 80, 2-[(dimethylcarbamoyl)-oxy]ethyl 6-(aminometh-yl)-1-{[3-phenylmethane-sulfonamido)naphthalen-1-yl]methyl}-1H-pyr-rolo[2,3-b]pyridine-2-carboxylate], with at most 0.1 µM; and `CCN1CCC(COC(=O)c2cc3ccc(CN)nc3n2Cc2cc(NS(=O)(=O)Cc3ccccc3)cc3ccccc23)CC1` [Compound 13, (1-ethylpiperidin-4-yl)-methyl 6-(aminomethyl)-1-{[3-(phenylmethane-sulfonamido)naphthalen-1-yl]methyl}-1H-pyr-rolo[2,3-b]pyridine-2-carboxylate], with at most 0.1 µM. On the same count and under the same terms, then `NCc1ccc2cc(C(=O)OCCNC(N)=O)n(Cc3cc(NS(=O)(=O)Cc4ccccc4)cc4ccccc34)c2n1` [Compound 94, 2-(carbamoylamino)-ethyl 6-(aminomethyl)-1-{[3-(phenylmethanesul-fonamido)naphthalen-1-yl]methyl}-1H-pyrrolo-[2,3-b]pyridine-2-carbox-ylate], with 0.1 to 0.5 µM. As for `CNCCOC(=O)c1cc2ccc(CN)nc2n1Cc1cc(NS(=O)(=O)Cc2ccccc2)cc2ccccc12` [Compound 53, 2-(methylamino)ethyl 6-(aminomethyl)-1-{[3-(phenylmethanesulfon-amido)naphthalen-1-yl]-methyl}-1H-pyrrolo[2,3-b]pyridine-2-carboxylate], the Ki was at most 0.1 µM. On the same count and under the same terms, under `Cn1ccnc1CNC(=O)c1cc2ccc(CN)nc2n1Cc1cc(NS(=O)(=O)Cc2ccsc2)cc2ccccc12` [Compound 165] stands at most 0.1 µM.

The test is the same for the next values; noted with them: Table A; Ki of Matriptase-2 given as class symbols; read-out: Mat-2 Ki.
In the case of `NCc1ccc2cc(C(=O)O)n(Cc3cc(CS(=O)(=O)Cc4ccccc4)cc4ccccc34)c2n1` [Compound 252, 6-(aminomethyl)-1-{[3-(phenylmethanesulfon-ylmethyl)naphthalen-1-yl]methyl}-1H-pyrrolo-[2,3-b]pyridine-2-car-boxylic acid], the Ki fell in the range of 0.5 to 3 µM. On the same count and under the same terms, under `NCc1ccc2cc(C(=O)O)n(Cc3cc(NC(=O)N4CCC(C(F)(F)F)CC4)cc4ccccc34)c2n1` [Compound 298, 6-(aminomethyl)-1-[(3-{[4-(trifluoromethyl)-piperidine-1-carbonyl]-amino}naphthalen-1-yl)-methyl]-1H-pyrrolo[2,3-b]pyridine-2-carboxylic acid] stands 0.5 to 3 µM; under `CC1(C)CCN(C(=O)Nc2cc(Cn3c(C(=O)O)cc4ccc(CN)nc43)c3ccccc3c2)CC1` [Compound 296, 6-(aminomethyl)-1-({3-[(4,4-dimethylpiperidine-1-carbonyl)amino]naph-thalen-1-yl}methyl)-1H-pyrrolo[2,3-b]pyridine-2-carboxylic acid], 0.5 to 3 µM. On the same count and under the same terms, then `NCc1ccc2cc(C(=O)O)n(Cc3cc(NS(=O)(=O)C[C@H]4CCCO4)cc4ccccc34)c2n1` (racemic) [Compound 257, rac-6-(aminomethyl)-1-[(3-{[(2R)-oxolan-2-yl]methanesulfonamido}-naphthalen-1-yl)methyl]-1H-pyrrolo[2,3-b]pyr-idine-2-carboxylic acid], with 0.1 to 0.5 µM; and `Cn1cc(CS(=O)(=O)Nc2cc(Cn3c(C(=O)O)cc4ccc(CN)nc43)c3ccccc3c2)cn1` [Compound 244, 6-(aminomethyl)-1-({3-[(1-methyl-1H-pyrazol-4-yl)methanesulfonamido]-naphthalen-1-yl}methyl)-1H-pyrrolo[2,3-b]pyr-idine-2-carboxylic acid], with 0.1 to 0.5 µM. The same measure, in the same setting: then `Cc1cccc(C)c1CS(=O)(=O)Nc1cc(Cn2c(C(=O)OCCC3CCN(C)CC3)cc3ccc(CN)cc32)c2ccccc2c1` [Compound 377, 2-(1-methylpiperidin-4-yl)ethyl 6-(aminometh-yl)-1-({3-[(2,6-dimethyl-phenyl)methanesulfon-amido]naphthalen-1-yl}-methyl)-1H-indole-2-carboxylate], with at most 0.1 µM; and `NCc1ccc2cc(C(=O)O)n(Cc3cc(NS(=O)(=O)C[C@H]4CCOC4)cc4ccccc34)c2n1` (racemic) [Compound 262, rac-6-(aminomethyl)-1-[(3-{[(3R)-oxolan-3-yl]-methanesulfonamido}-naphthalen-1-yl)methyl]-1H-pyrrolo[2,3-b]pyr-idine-2-carboxylic acid], with 0.1 to 0.5 µM; and `NCc1ccc2cc(C(=O)O)n(Cc3cc(NS(=O)(=O)C[C@H]4COCCN4)cc4ccccc34)c2n1` (racemic) [Compound 261, 6-(aminomethyl)-1-({3-[(morpholin-3-l)methane-sulfonamido]naphthalen-1-yl}methyl)-1H-pyr-rolo[2,3-b]pyridine-2-carboxylic acid], with 0.1 to 0.5 µM. In the case of `NCc1ccc2cc(C(=O)O)n(Cc3cc(NS(=O)(=O)Cc4ccccc4F)cc4ccccc34)c2n1` [Compound 227, 6-(aminomethyl)-1-({3-[(2-fluorophenyl)meth-anesulfonamido]naph-thalen-1-yl}methyl)-1H-pyrrolo[2,3-b]pyridine-2-carboxylic acid], the Ki is 0.1 to 0.5 µM.

Staying with this test, now noted: Table B; Human Recombinant Matriptase 2, 3.5 nM enzyme, 62 μM substrate, 30 mins preincubation; read-out: Mean Ki.
As to `CN1CCC(COC(=O)c2cc3ccc(CN)nc3n2Cc2cccc3cnccc23)CC1` [Compound 2.46], the Ki is over 3 µM. Same read-out and setting: under `CN1CCC(CCOC(=O)c2cc3ccc(CN)nc3n2Cc2cc(NS(=O)(=O)Cc3ccccc3)cc3c2CCCC3)CC1=O` (stereo not drawn) [Compound 2.1] stands 0.1 to 0.5 µM; under `CN1CCC(CCOC(=O)c2cc3ccc(CN)nc3n2Cc2cc(NS(=O)(=O)Cc3ccccc3)cc3ccccc23)CC1=O` (stereo not drawn) [Compound 2.3], at most 0.1 µM; under `CN(C)c1ccc(NC(=O)c2cc3ccc(CN)nc3n2Cc2cc(NS(=O)(=O)Cc3ccccc3)cc3ccccc23)cc1` [Compound 2.36], 0.1 to 0.5 µM. Turning to `CN1CCC(COC(=O)c2cc3ccc(CN)nc3n2Cc2cc(NS(=O)(=O)Cc3ccsc3)cc3ccccc23)CCC1=O` (stereo not drawn) [Compound 2.17], the Ki was at most 0.1 µM.

As for `CNC12CC(COC(=O)c3cc4ccc(CN)nc4n3Cc3cc(NS(=O)(=O)Cc4c(C)cccc4C)cc4ccccc34)(C1)C2` [Compound 2.34], the Ki is at most 0.1 µM.

Regarding `CN1CCC(C(OC(=O)c2cc3ccc(CN)nc3n2Cc2cc(NS(=O)(=O)Cc3ccccc3)cc3ccccc23)C2CC2)CC1` (stereo not drawn) [Compound 2.33], the Ki was at most 0.1 µM.

These data come from US20240400553A1, “AMINE BASED MATRIPTASE 2 INHIBITORS AND USES THEREOF” (Disc Medicine, Inc., priority 2023, published 2024).
